In US20030096854A1, “Substituted tricyclics” (priority 2002, published 2003):

biological target: T1, recombinant human secreted phospholipase A2 (Homo sapiens, UniProt P14555); experiment: Chromogenic assay for inhibitors of recombinant human secreted phospholipase A2 (Assay Example 1); assay type: biochemical; conditions: compounds of formula 2; diheptanoyl thio-PC substrate, pH 7.5, absorbance at 405 nm
T1 sequence (P14555 21-144): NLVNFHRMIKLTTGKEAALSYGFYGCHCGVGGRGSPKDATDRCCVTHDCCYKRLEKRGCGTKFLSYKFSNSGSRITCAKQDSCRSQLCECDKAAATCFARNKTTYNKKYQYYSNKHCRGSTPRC
Excerpt: The following chromogenic assay procedure was used to identify and evaluate inhibitors of recombinant human secreted phospholipase A2. The assay described herein has been adapted for high volume screening using 96 well microtiter plates. A general description of this assay method is found in the article, “Analysis of Human Synovial Fluid Phospholipase A2 on Short Chain Phosphatidylcholine-Mixed Micelles: Development of a Spectrophotometric Assay Suitable for a Microtiterplate Reader”, by Laure J. Reynolds, Lori L. Hughes, and Edward A Dennis, Analytical Biochemistry, 204, pp. 190-197, 1992 (the disclosure of which is incorporated herein by reference):
Bovine Serum Albumin (fatty acid free) (1 g/L)
(Sigma A-7030, product of Sigma Chemical Co. St. Louis Mo., USA) […]
pH 7.5 (adjust with NaOH)
Adjust pH to 4.5 with acetic acid
5,5′-dithiobis-2-nitrobenzoic acid
Racemic Diheptanoyl Thio—PC racemic 1,2-bis(heptanoylthio)-1,2-dideoxy-sn-glycero-3-phosphorylcholine TRITON X-100™ prepare at 6.249 mg/ml in reaction buffer to equal […]
TRITON X-100™ is a polyoxy ethylene non-ionic
A measured volume of racemic dipheptanoyl thio PC supplied in chloroform at a concentration of 100 mg/ml is taken to dryness and redissolved in 10 millimolar TRITON X-100™ nonionic detergent aqueous solution. Reaction Buffer is added to the solution, then DTNB to give the Reaction Mixture.
The reaction mixture thus obtained contains 1 mM diheptanoly thio-PC substrate, 0.29 mm Triton X-100™ detergent, and 0.12 mm DTMB in a buffered aqueous solution at pH 7.5.
1. Add 0.2 ml reaction mixture to all wells;
2. Add 10 ul test compound (or solvent blank) to appropriate wells, mix 20 seconds;
3. Add 50 nanograms of sPLA2 (10 microliters) to appropriate wells;
4. Incubate plate at 40° C. for 30 minutes;
5. Read absorbance of wells at 405 nanometers with an automatic plate reader.
All compounds were tested in triplicate. Typically, compounds were tested at a final concentration of 5 ug/ml. […] Lack of color development at 405 nanometers evidenced inhibition. Compounds initially found to be active were reassayed to confirm their activity and, if sufficiently active, IC50 values were determined. […] In all cases, % inhibition measured at 405 nanometers generated by enzyme reactions containing inhibitors relative to the uninhibited control reactions was determined. Each sample was titrated in triplicate and result values were averaged for plotting and calculation of IC50 values. IC50 were determined by plotting log concentration versus inhibition values in the range from 10-90% inhibition.

Row | IC50 | Structure (SMILES)
1 | 151 nM | NC(=O)COc1cccc2c1c1c(C(N)=O)cccc1n2Cc1ccccc1 [Compound 2a, [[5-Carbamoyl-9-(phenylmethyl)carbazol-4-yl]oxy]acetamide]
2 | 273 nM | CCNC(=O)COc1cccc2c1c1c(C(N)=O)cccc1n2Cc1ccccc1 [Compound 2b, [[5-Carbamoyl-9-(phenylmethyl)carbazol-4-yl]oxy]-N-(ethyl)acetamide]

same assay, conditions: compounds of formula 3; diheptanoyl thio-PC substrate, pH 7.5, absorbance at 405 nm

Row | IC50 | Structure (SMILES)
3 | 383 nM | COC(=O)CNC(=O)COc1cccc2c1c1c(C(N)=O)cccc1n2Cc1ccccc1 [Compound 3a, N-[[[5-Carbamoyl-9-(phenylmethyl)carbazol-4-yl]oxy]acetyl]glycine methyl ester]
4 | 205 nM | COC(=O)[C@H](C)NC(=O)COc1cccc2c1c1c(C(N)=O)cccc1n2Cc1ccccc1 [Compound 3b, N-[[[5-Carbamoyl-9-(phenylmethyl)carbazol-4-yl]oxy]acetyl]-L-alanine Methyl Ester]
5 | 67.5 nM | COC(=O)[C@H](CC(C)C)NC(=O)COc1cccc2c1c1c(C(N)=O)cccc1n2Cc1ccccc1 [Compound 3c, N-[[[5-Carbamoyl-9-(phenylmethyl)carbazol-4-yl]oxy]acetyl]-L-leucine Methyl Ester]
6 | 513 nM | COC(=O)C[C@H](NC(=O)COc1cccc2c1c1c(C(N)=O)cccc1n2Cc1ccccc1)C(=O)OC [Compound 3d, N-[[[5-Carbamoyl-9-(phenylmethyl)carbazol-4-yl]oxy]acetyl]-L-aspartic Acid Dimethyl Ester]
7 | 709 nM | COC(=O)CC[C@H](NC(=O)COc1cccc2c1c1c(C(N)=O)cccc1n2Cc1ccccc1)C(=O)OC [Compound 3e, N-[[[5-Carbamoyl-9-(phenylmethyl)carbazol-4-yl]oxy]acetyl]-L-glutamic Acid Dimethyl Ester]
8 | 263 nM | COC(=O)[C@H](CCSC)NC(=O)COc1cccc2c1c1c(C(N)=O)cccc1n2Cc1ccccc1 [Compound 3f, N-[[[5-Carbamoyl-9-(phenylmethyl)carbazol-4-yl]oxy]acetyl]-L-methionine Methyl Ester]
9 | 8600 nM | COC(=O)[C@H](Cc1ccccc1)NC(=O)COc1cccc2c1c1c(C(N)=O)cccc1n2Cc1ccccc1 [Compound 3g, N-[[[5-Carbamoyl-9-(phenylmethyl)carbazol-4-yl]oxy]acetyl]-L-phenylalanine Methyl Ester]

same assay, conditions: compounds of formula 4; diheptanoyl thio-PC substrate, pH 7.5, absorbance at 405 nm

Row | IC50 | Structure (SMILES)
10 | 118 nM | NC(=O)c1cccc2c1c1c(OCC(=O)NCC(=O)O)cccc1n2Cc1ccccc1 [Compound 4a, N-[[[5-Carbamoyl-9-(phenylmethyl)carbazol-4-yl]oxy]acetyl]glycine]
11 | 16.1 nM | CC(C)C[C@H](NC(=O)COc1cccc2c1c1c(C(N)=O)cccc1n2Cc1ccccc1)C(=O)O [Compound 4c, N-[[[5-Carbamoyl-9-(phenylmethyl)carbazol-4-yl]oxy]acetyl]-L-leucine]
12 | 99.2 nM | NC(=O)c1cccc2c1c1c(OCC(=O)N[C@@H](CC(=O)O)C(=O)O)cccc1n2Cc1ccccc1 [Compound 4d, N-[[[5-Carbamoyl-9-(phenylmethyl)carbazol-4-yl]oxy]acetyl]-L-aspartic Acid]
13 | 61.2 nM | NC(=O)c1cccc2c1c1c(OCC(=O)N[C@@H](CCC(=O)O)C(=O)O)cccc1n2Cc1ccccc1 [Compound 4e, N-[[[5-Carbamoyl-9-(phenylmethyl)carbazol-4-yl]oxy]acetyl]-L-glutamic Acid]
14 | 103 nM | CSCC[C@H](NC(=O)COc1cccc2c1c1c(C(N)=O)cccc1n2Cc1ccccc1)C(=O)O [Compound 4f, N-[[[5-Carbamoyl-9-(phenylmethyl)carbazol-4-yl]oxy]acetyl]-L-methionine]
15 | 324 nM | NC(=O)c1cccc2c1c1c(OCC(=O)N[C@@H](Cc3ccccc3)C(=O)O)cccc1n2Cc1ccccc1 [Compound 4g, N-[[[5-Carbamoyl-9-(phenylmethyl)carbazol-4-yl]oxy]acetyl]-L-phenylalanine]
